# Earlier results, collected in patent publication US20150237898A1, “STEVIOSIDE BLENDS” (Cargill, Incorporated, priority 2012, published 2015).
# “Also recorded” adds a separate entry of the source.
# Conditions: literature
SMILES,bitterness compared with other glycosides,sweetening power / sweetness compared with other glycosides
C=C1C[C@@]23CC[C@H]4[C@@](C)(CCC[C@@]4(C)C(=O)O[C@@H]4O[C@H](CO)[C@@H](O)[C@H](O)[C@H]4O)[C@@H]2CC[C@]1(O[C@@H]1O[C@H](CO)[C@@H](O)[C@H](O)[C@H]1O[C@@H]1O[C@H](CO)[C@@H](O)[C@H](O)[C@H]1O)C3 [stevioside],much more bitter than Reb A and other glycosides,much less sweet
"C=C1C[C@@]23CC[C@H]4[C@@](C)(CCC[C@@]4(C)C(=O)O[C@@H]4O[C@H](CO)[C@@H](O)[C@H](O)[C@H]4O)[C@@H]2CC[C@]1(O[C@@H]1O[C@H](CO)[C@@H](O)[C@H](O[C@@H]2O[C@H](CO)[C@@H](O)[C@H](O)[C@H]2O)[C@H]1O[C@@H]1O[C@H](CO)[C@@H](O)[C@H](O)[C@H]1O)C3 [Reb A, rebaudioside A]",,highest sweetening power of all the glycosides; also recorded: more potent and more pleasant tasting than stevioside
